Data from US20230390401A1, “RAPIDLY RELEASED BIOORTHOGONAL CAGING GROUPS” (University of Utah Research Foundation, priority 2018, published 2023).
Read-outs that look alike come from different tables or passages of the source.

What was measured:
[1] = test system: A549 lung cancer cells; experiment: Cytotoxicity assay (CellTiter-Glo 2.0 viability)
Procedure: A549 lung cancer cells (ATCC, USA) were maintained in a humidified CO2 (5%) incubator at 37° C. in RPMI (Thermo Fisher, USA) supplemented with 10% fetal bovine serum in the presence of 1% Penicillin-Streptomycin-Glutamine (Thermo Fisher, USA) and 0.2% Normocin (InvivoGen, USA).
The cells were plated in 96-well TC treated plates (PerkinElmer, USA) at a 6,000 cells/well density 24 h prior to the addition of the drugs. All drugs, prodrugs and PEG-DPTz in DMSO stock solution were serially diluted in pre-warmed culture medium at 37° C. For samples assessing the reaction-induced drug release, prodrugs were added to the cells first (100 μL final volume per well) in a series of final concentrations ranging from 0.005 to 10 μM followed by addition of PEG-DPTz (20, 40 and 80 μM).
After 72 h incubation at 37° C., cell proliferation was assessed by a CellTiter-Glo©2.0 viability assay according to the manufacturer's instructions. After 15 min incubation at 25° C., the medium was gently measured with Envision 2104 Multilabel Reader (PerkinElmer, USA) to get the luminescent based on quantitation of the ATP present, an indicator of metabolically active cells. The proliferation assay was performed in quadruplet measurements (n=4). EC50 values were derived from the normalized cell growth and Growth/Sigmoidal formula were fitted and generated with Origin 8.0. […] The results are expressed as the mean±standard deviation (n=4).

[2] = Kinetics of Tz-induced release from ICPr/ICPrc groups in PBS:DMSO; settings: for k1,elim, release of fluorophore from 3-oxopropyl intermediate: in PBS, after reaction with PEG-DPTz; for bimolecular rate constant k2: PEG-DPTz c=0.2 mM, excess probe c=2 mM, T=37° C., PBS:DMSO (9:1), pseudo-first order fit
Procedure: (§1) Fitting the disappearance of PEG-DPTz (c=0.2 mM) absorbance in the presence of excess ICPr-O-NA or ICPrc-NH-NA (c=2 mM;T=37° C., PBS:DMSO (9:1)) to a pseudo-first order rate equation provided the bimolecular rate constants k2(ICPr-O-NA)=4.0±0.2 M^−1s^−1 and k2(ICPrc-NH-NA)=1.1±0.2 M^−1s^−1, respectively. Release of the fluorophores in PBS from the postulated 3-oxopropyl intermediate was delayed relative to the reaction of the ICPr/ICPrc-groups with PEG-DPTz (k1,elim(HO-NA)=1.6×10^−4 s^−1; k1,elim(H2N-NA)=5.00×10^−5 s^−1; FIG. 4B, right column) in agreement with studies of cargo release from such groups. The aldehyde intermediate was detectable by NMR in DMSO-d6:D2O (9:1). To our delight, fluorophore release in diluted human serum (T=37° C., PBS:serum (1:1)) reached completion in few minutes because serum albumin can catalyze the β-elimination reaction.

[3] = Stability in serum in the absence of Tz; type: in vitro ADME, human
[4] = test system: zebrafish embryos; experiment: In vivo uncaging of resorufin fluorescence in zebrafish embryos implanted with Tz-PS beads; settings: c=10 μM, t=8 h, Tz-PS implanted into yolk sacs
[5] = test system: zebrafish embryos; settings: medium c=0, 1, 10 μM, t=8 h
Procedure: Zebrafish embryos were used as a model organism to evaluate the activity of uncaged payload molecules in vivo. […] For the fluorescence study, Tz-PSs were implanted into the yolk sacs of zebrafish embryos followed by incubation with ICPr-rsf (c=10 μM). […] Mexiletine is a voltage-gated sodium channel blocker known to induce cardiac arrhythmia, and which has been reported to decrease heart rate.
UV-VIS photospectrometic kinetic measurements were performed on a microplate reader SpectramaX M5 (Molecular Device, USA) in 96-well plates or 1 mL quartz cuvette. Cell proliferation assays were performed on an Envision 2104 Multilabel Reader (PerkinElmer, USA). Zebrafish Imaging and Efficiency Test (Heart Rate Reduction) were performed with Zeiss SteREO Discovery.V8 microscope (Zeiss, Jena, Germany) fitted with a PentaFluor S 120 vertical illuminator and coupled with an Xcite Series 120PC light source.

[6] = Fluorophore release (β-elimination) in diluted human serum; settings: T=37° C., PBS:serum (1:1)
Procedure: as §1

[7] = read-out: EC50 cytotoxicity, prodrug combined with PEG-DPTz, A549 cells, prodrug + excess PEG-DPTz (c=80 μM), 72 h

## [C-]#[N+]CCCOC(=O)N1C2CN3C4=C(C(=O)C(N)=C(C)C4=O)C(COC(N)=O)C3(OC)C21 (centres unmarked) [ICPrc-mmC, N-(3-isocyanopropyl-1-carbamoyl)Mitomycin C]
[1]; [7]
  EC50: 244 ± 17 nM

## COc1cccc2c1C(=O)c1c(O)c3c(c(O)c1C2=O)C[C@@](O)(C(=O)CO)C[C@@H]3O[C@H]1C[C@H](N)[C@H](O)[C@H](C)O1 [dox, doxorubicin, reference compound]
[1]; Homo sapiens, A549, 72 h, read-out: EC50 cytotoxicity, free drug
  EC50: 144 ± 28 nM

## COCCOCCOCCOCCN1C(=O)c2cccc3c(N)ccc(c23)C1=O [Structure H2N-NA, N-(methyl-PEG4)-4-amino-1,8-naphthalimide]
[2]
  k1,elim, release of fluorophore from 3-oxopropyl intermediate: 5e-05 s⁻¹

## [C-]#[N+]CCCOC(=O)NC1CC(OC2CC(O)(C(=O)CO)Cc3c(O)c4c(c(O)c32)C(=O)c2c(OC)cccc2C4=O)OC(C)C1O (centres unmarked) [ICPrc-dox, N-(3-isocyanopropyl-1-carbamoyl)doxorubicin]
[1]; [7]
  EC50: 165 ± 35 nM

## COCCOCCOCCOCCN1C(=O)c2cccc3c(O)ccc(c23)C1=O [HO-NA, N-(methyl-PEG4)-4-hydroxy-1,8-naphthalimide]
[2]
  k1,elim, release of fluorophore from 3-oxopropyl intermediate: 0.00016 s⁻¹

## N-(methyl-PEG4)-4-(3-isocyanopropyl-carbamoyl)amino-1,8-naphthalimide [ICPrc-NH-NA]
[3]
  stability in serum: completely stable in serum for at least three days

## [C-]#[N+]CCCOc1ccc2nc3ccc(=O)cc-3oc2c1 [ICPr-rsf, 3-isocyanopropyl resorufin ether]
[4]
  fluorescence staining, fish with Tz-PS versus controls with unmodified beads: 5.2 fold

## [C-]#[N+]CCCOC(=O)NC(C)COc1c(C)cccc1C (centres unmarked) [ICPrc-mex, N-(3-isocyanopropyl-1-carbamoyl)mexiletine]
[5]
  heart rate in control fish bearing unmodified beads: no changes were observed
[5]; normalized to heart rate at t=0 h
  heart rate in fish with implanted Tz-PS: dose-dependent decrease in heart rate

## [C-]#[N+]CCCOC(=O)Nc1ccc2c3c(cccc13)C(=O)N(CCOCCOCCOCCOC)C2=O [ICPrc-NH-NA]
[6]
  apparent first-order rate constant k1,elim in serum: 0.0016 s⁻¹
[2]
  bimolecular rate constant k2: 1.1 ± 0.2 M⁻¹ s⁻¹

## [C-]#[N+]CCCOc1ccc2c3c(cccc13)C(=O)N(CCOCCOCCOCCOC)C2=O [ICPr-O-NA, N-(methyl-PEG4)-4-(3-isocyanopropyl-1-oxy)-1,8-naphthalimide]
[6]
  apparent first-order rate constant k1,elim in serum: 0.0042 s⁻¹
[2]
  bimolecular rate constant k2: 4.0 ± 0.2 M⁻¹ s⁻¹
[3]
  stability in serum: completely stable in serum for at least three days
